Source: patent US10745382B2 (BRISTOL-MYERS SQUIBB COMPANY, priority 2015, dated 2020)
Like-named read-outs stand apart in the source and are kept apart here.

Biological target: T1, PD-1/PD-L1 (Homo sapiens, UniProt Q9NZQ7)
T1 construct: made in house; host or cells: HEK293T
Test: PD-1/PD-L1 Homogenous Time-Resolved Fluorescence (HTRF) binding assay
Conditions: PD-L1-His 10 nM, PD-1-Ig 20 nM, read-out: Range or IC50
How it was run: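 Binding was measured by HTRF in dPBS with 0.1% BSA and 0.05% Tween-20. Detection used europium cryptate anti-Ig (1 nM final) and APC anti-His (20 nM final) added over the binding reaction.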

T1 sequence (Q9NZQ7 with tags, fused parts or gaps): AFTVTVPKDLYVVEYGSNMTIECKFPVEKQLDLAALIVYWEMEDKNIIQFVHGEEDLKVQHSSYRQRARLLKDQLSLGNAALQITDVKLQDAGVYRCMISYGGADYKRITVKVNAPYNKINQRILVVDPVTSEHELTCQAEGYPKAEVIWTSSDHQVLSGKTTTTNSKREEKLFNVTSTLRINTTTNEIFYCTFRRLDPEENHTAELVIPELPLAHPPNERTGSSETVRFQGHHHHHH

| IC50 (value given as range class) | IC50 (numeric IC50) | SMILES |
| --- | --- | --- |
| 0.21 to 10 nM |  | Cc1c(COc2cc(OCc3cncc(C#N)c3)c(CN3CCCCC3CO)cc2Cl)cccc1-c1cccc(OCCCN2CCCCC2CO)c1C (stereo not drawn) [Example 2256, 5-((4-chloro-2-((2-(hydroxymethyl)piperidin-1-yl)methyl)-5-((3′-(3-(2-(hydroxymethyl)piperidin-1-yl)propoxy)-2,2′-dimethylbiphenyl-3-yl)methoxy)phenoxy)methyl)nicotinonitrile] |
| 0.21 to 10 nM |  | Cc1c(CCCCN2CC[C@@H](O)C2)cccc1-c1cccc(COc2cc(OCc3cncc(C#N)c3)c(CN3C[C@H](O)C[C@H]3C(=O)O)cc2Cl)c1C [Example 4062, (2S,4R)-1-(5-chloro-2-((5-cyanopyridin-3-yl)methoxy)-4-((3′-(4-((R)-3-hydroxypyrrolidin-1-yl)butyl)-2,2′-dimethyl-[1,1′-biphenyl]-3-yl)methoxy)benzyl)-4-hydroxypyrrolidine-2-carboxylic Acid] |
| 0.21 to 10 nM |  | Cc1c(COc2cc(OCc3cncc(C#N)c3)c(CN3CCCC[C@H]3C(=O)O)cc2Cl)cccc1-c1cccc(OCCCN2C[C@@H](O)C[C@H]2C(=O)O)c1C [Example 2240, (2S)-1-(4-((3′-(3-((2S,4S)-2-carboxy-4-hydroxypyrrolidin-1-yl)propoxy)-2,2′-dimethylbiphenyl-3-yl)methoxy)-5-chloro-2-((5-cyanopyridin-3-yl)methoxy)benzyl)piperidine-2-carboxylic Acid] |
| 0.21 to 10 nM |  | Cc1c(COc2cc(OCc3cncc(C#N)c3)c(CN[C@](C)(CO)C(=O)O)cc2Cl)cccc1-c1cccc(OCCCN2CC[C@@H](O)C2)c1Cl [Example 1121, (R)-2-((5-Chloro-4-((2′-chloro-3′-(3-((R)-3-hydroxypyrrolidin-1-yl)propoxy)-2-methyl-[1,1′-biphenyl]-3-yl)methoxy)-2-((5-cyanopyridin-3-yl)methoxy)benzyl)amino)-3-hydroxy-2-methylpropanoic Acid] |
| 0.21 to 10 nM |  | CC(=O)N[C@@H]1CCN(CCCOc2cccc(-c3cccc(COc4cc(OCc5cncc(C#N)c5)c(CN[C@@](C)(CO)C(=O)O)cc4Cl)c3C)c2C)C1 [Example 2270, (2S)-2-(4-((3′-(3-((R)-3-acetamidopyrrolidin-1-yl)propoxy)-2,2′-dimethylbiphenyl-3-yl)methoxy)-5-chloro-2-((5-cyanopyridin-3-yl)methoxy)benzylamino)-3-hydroxy-2-methylpropanoic Acid] |
|  | 3 nM | Cc1c(COc2cc(OCc3cncc(C#N)c3)c(CN[C@@H](Cc3ccc(O)cc3)C(=O)O)cc2Cl)cccc1-c1cccc(OCCCN2CC[C@@H](O)C2)c1C [Example 4157, (5-chloro-2-((5-cyanopyridin-3-yl)methoxy)-4-((3′-(3-((R)-3-hydroxypyrrolidin-1-yl)propoxy)-2,2′-dimethyl-[1,1′-biphenyl]-3-yl)methoxy)benzyl)-L-tyrosine] |
| 0.21 to 10 nM |  | CC(=O)NC1CCN(CCCOc2cccc(-c3cccc(COc4cc(OCc5cncc(C#N)c5)c(CN(CCC(F)(F)F)C(CO)CO)cc4Cl)c3C)c2Cl)CC1 [Example 2073, N-(1-(3-((2-chloro-3′-((2-chloro-5-((5-cyanopyridin-3-yl)methoxy)-4-(((1,3-dihydroxypropan-2-yl)(3,3,3-trifluoropropyl)amino)methyl)phenoxy)methyl)-2′-methyl-[1,1′-biphenyl]-3-yl)oxy)propyl)piperidin-4-yl)acetamide] |

The next lines start with the compound.

| SMILES | IC50 (value given as range class) | IC50 (numeric IC50) |
| --- | --- | --- |
| Cc1c(COc2cc(OCc3cncc(S(C)(=O)=O)c3)c(CN[C@](C)(CO)C(=O)O)cc2Cl)cccc1-c1cccc(OCCCN2CC[C@@H](O)C2)c1C [Example 1026, (R)-2-((5-chloro-4-((3′-(3-((R)-3-hydroxypyrrolidin-1-yl)propoxy)-2,2′-dimethyl-[1,1′-biphenyl]-3-yl)methoxy)-2-((5-(methylsulfonyl)pyridin-3-yl)methoxy)benzyl)amino)-3-hydroxy-2-methylpropanoic Acid] | 0.21 to 10 nM |  |
| Cc1c(COc2cc(OCc3cncc(C#N)c3)c(CN3CCCC[C@H]3C(=O)O)cc2Cl)cccc1-c1cccc(OCCCN2CC[C@@](O)(c3ccc(Cl)cc3)[C@](C)(O)C2)c1Cl [Example 1088, (S)-1-(5-chloro-4-((2′-chloro-3′-(3-((3R,4R)-4-(4-chlorophenyl)-3,4-dihydroxy-3-methylpiperidin-1-yl)propoxy)-2-methyl-[1,1′-biphenyl]-3-yl)methoxy)-2-((5-cyanopyridin-3-yl)methoxy)benzyl)piperidine-2-carboxylic Acid] | 0.21 to 10 nM |  |
| COc1cc(OCc2cccc(-c3cccc(OCCCN4CC[C@@H](O)C4)c3C)c2C)c(Cl)cc1CN[C@@](C)(CO)C(=O)O [Example 3033, (2S)-2-((5-chloro-4-((3′-(3-((R)-3-hydroxypyrrolidin-1-yl)propoxy)-2,2′-dimethyl-[1,1′-biphenyl]-3-yl)methoxy)-2-methoxybenzyl)amino)-3-hydroxy-2-methylpropanoic Acid] | 0.21 to 10 nM |  |
| CNC(=O)c1cccc(-c2cccc(COc3cc(OCc4cc(F)cc(F)c4)c(CNC(C)(CO)CO)cc3Cl)c2C)c1C [Example 4029, 3′-((2-chloro-5-((3,5-difluorobenzyl)oxy)-4-(((1,3-dihydroxy-2-methylpropan-2-yl)amino)methyl)phenoxy)methyl)-N,2,2′-trimethyl-[1,1′-biphenyl]-3-carboxamide] | 10 to 100 nM |  |
| Cc1c(COc2cc(OCc3cc(Cl)cc(Cl)c3)c(CNC(C)(CO)CO)cc2Cl)cccc1-c1cccc(OCCCN2CC[C@@H](O)C2)c1C [Example 4504, (R)-2-((5-chloro-2-((3,5-dichlorobenzyl)oxy)-4-((3′-(3-(3-hydroxypyrrolidin-1-yl)propoxy)-2,2′-dimethyl-[1,1′-biphenyl]-3-yl)methoxy)benzyl)amino)-2-methylpropane-1,3-diol] | 0.21 to 10 nM |  |
| Cc1c(COc2cc(OCc3cncc(C#N)c3)c(CN3CCCC[C@H]3C(=O)O)cc2Cl)cccc1-c1cccc(OCCCN2CCCCC2CO)c1C (stereo partly drawn) [Example 2202, (2S)-1-(5-chloro-2-((5-cyanopyridin-3-yl)methoxy)-4-((3′-(3-(2-(hydroxymethyl)piperidin-1-yl)propoxy)-2,2′-dimethylbiphenyl-3-yl)methoxy)benzyl)piperidine-2-carboxylic Acid] | 0.21 to 10 nM |  |
| Cc1c(COc2cc(OCc3cncc(C#N)c3)c(CN[C@@H](CO)C(=O)O)cc2Cl)cccc1-c1cccc(OCCCN2CCC(O)C2)c1C(F)(F)F (stereo in doubt) [Example 3012, (S)-2-((5-chloro-2-((5-cyanopyridin-3-yl)methoxy)-4-((3′-(3-((R)-3-hydroxypyrrolidin-1-yl)propoxy)-2-methyl-2′-(trifluoromethyl)-[1,1′-biphenyl]-3-yl)methoxy)benzyl)amino)-3-hydroxypropanoic Acid] | 0.21 to 10 nM |  |
| Cc1c(COc2cc(OCc3cncc(C#N)c3)c(CN[C@@](C)(CO)C(=O)O)cc2Cl)cccc1-c1cccc(OCCCN2CCC[C@@H](C(=O)O)C2)c1C [Example 2239, (3R)-1-(3-(3′-((4-(((S)-2-carboxy-1-hydroxypropan-2-ylamino)methyl)-2-chloro-5-((5-cyanopyridin-3-yl)methoxy)phenoxy)methyl)-2,2′-dimethylbiphenyl-3-yloxy)propyl)piperidine-3-carboxylic Acid] | 0.21 to 10 nM |  |
| Cc1c(COc2cc(OCc3cncc(C#N)c3)c(CN3CCCC[C@H]3C(=O)O)cc2Cl)cccc1-c1cccc(C(=O)N2CC2)c1C [Example 4001, (S)-1-(4-((3′-(aziridine-1-carbonyl)-2,2′-dimethyl-[1,1′-biphenyl]-3-yl)methoxy)-5-chloro-2-((5-cyanopyridin-3-yl)methoxy)benzyl)piperidine-2-carboxylic Acid] | 0.21 to 10 nM |  |
| Cc1c(COc2cc(OCc3cncc(C#N)c3)c(CNC(CO)CO)cc2Cl)cccc1-c1cccc(OCC2(CN3CC[C@@H](O)C3)CC2)c1C [Example 2342, (R)-5-((4-chloro-2-(((1,3-dihydroxypropan-2-yl)amino)methyl)-5-((3′-((1-((3-hydroxypyrrolidin-1-yl)methyl)cyclopropyl)methoxy)-2,2′-dimethyl-[1,1′-biphenyl]-3-yl)methoxy)phenoxy)methyl)nicotinonitrile] | 0.21 to 10 nM |  |
| Cc1c(COc2cc(OCc3cncc(C#N)c3)c(C(C)N3C[C@H](O)C[C@H]3C(=O)O)cc2Cl)cccc1-c1cccc(OCCCN2CC[C@@H](O)C2)c1C (stereo partly drawn) [Example 4138, (2S,4R)-1-(1-(5-chloro-2-((5-cyanopyridin-3-yl)methoxy)-4-((3′-(3-((R)-3-hydroxypyrrolidin-1-yl)propoxy)-2,2′-dimethyl-[1,1′-biphenyl]-3-yl)methoxy)phenyl)ethyl)-4-hydroxypyrrolidine-2-carboxylic Acid] | 0.21 to 10 nM |  |
| CNC(=O)c1cccc(-c2cccc(COc3cc(OCc4cc(F)cc(F)c4)c(C=O)cc3Cl)c2C)c1C [Example 4028, 3′-((2-chloro-5-((3,5-difluorobenzyl)oxy)-4-formylphenoxy)methyl)-N,2,2′-trimethyl-[1,1′-biphenyl]-3-carboxamide] | 100 to 2000 nM |  |
| Cc1c(COc2cc(OCc3cncc(C#N)c3)c(CNC(C)(CO)CO)cc2Cl)cccc1-c1cccc(OCCCN2CCCCC2)c1C [Example 2287, 5-((4-chloro-2-(((1,3-dihydroxy-2-methylpropan-2-yl)amino)methyl)-5-((2,2′-dimethyl-3′-(3-(piperidin-1-yl)propoxy)-[1,1′-biphenyl]-3-yl)methoxy)phenoxy)methyl)nicotinonitrile] | 0.21 to 10 nM |  |
| Cc1c(COc2cc(OCc3cc(F)cc(F)c3)c(CO)cc2Cl)cccc1-c1cccc(OCCCN2CC[C@@H](O)C2)c1C [Example 4522, (R)-1-(3-((3′-((2-chloro-5-((3,5-difluorobenzyl)oxy)-4-(hydroxymethyl)phenoxy)methyl)-2,2′-dimethyl-[1,1′-biphenyl]-3-yl)oxy)propyl)pyrrolidin-3-ol] | 10 to 100 nM |  |
